Measurements from PMC4019636, “Rational Design of Berberine-Based FtsZ Inhibitors with Broad-Spectrum Antibacterial Activity” (PLoS ONE, 2014).
Where two headings read alike, the source gives them in different places.

Key:
S. aureus FtsZ [1] = target: T1, S. aureus FtsZ (Staphylococcus aureus, UniProt P0A031); experiment: GTPase activity assay; type: biochemical; conditions: for GTPase activity of S. aureus FtsZ: 0.44 in its absence
T1 construct: made in house; host or cells: E. coli BL21(DE3)
T1 sequence (P0A031 1-390): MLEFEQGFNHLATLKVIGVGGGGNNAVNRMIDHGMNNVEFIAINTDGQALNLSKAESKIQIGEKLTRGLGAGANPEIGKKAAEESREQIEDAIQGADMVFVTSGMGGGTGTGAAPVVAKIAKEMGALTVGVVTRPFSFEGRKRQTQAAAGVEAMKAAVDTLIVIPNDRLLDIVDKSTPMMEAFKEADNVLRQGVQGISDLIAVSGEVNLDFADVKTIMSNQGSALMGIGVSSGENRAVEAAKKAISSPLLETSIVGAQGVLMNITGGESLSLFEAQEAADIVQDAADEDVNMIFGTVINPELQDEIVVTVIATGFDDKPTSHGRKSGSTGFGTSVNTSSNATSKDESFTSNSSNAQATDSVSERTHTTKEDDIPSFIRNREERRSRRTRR
Protocol: (§1) E. coli BL21(DE3) cells were transformed with the pRSET-A-S vector carrying S. aureus FtsZ with a 6-histidine tag attached at its N-terminus under the control of a T7 promoter. […] When the OD600 reached 0.8, protein expression was induced with 0.4 mM isopropyl-β-D-thiogalactopyranoside (IPTG) for 4 h. Cells were harvested by centrifugation at 9000 rpm for 20 min at 4°C. The cell pellet was resuspended in 20 mL of solubilization buffer (50 mM Tris-HCl, 150 mM NaCl, 1 mM PMSF and 1 mM EDTA, pH 7.4) and then lysed with 1 mg/mL of lysozyme. The mixture was incubated for 1 h on ice. The cells were disrupted by sonication and the crude lysate obtained was centrifuged at 13,000 rpm for 1 h at 4°C. The supernatant containing 6-histidine tagged S. aureus FtsZ was collected and loaded onto a nickel charged HiTrap chelating column pre-equilibrated with starting buffer (20 mM sodium phosphate buffer, 0.5 M NaCl, pH 7.4). The column was then washed with 8 column volumes of the starting buffer to remove the unbound proteins, and the histidine-tagged enzyme was eluted by a linear gradient of 0−0.2 M imidazole. Fractions containing S. aureus FtsZ were pooled, buffer-exchanged with 20 mM NH4HCO3 (pH 8.0) at 4°C, lyophilized, and stored at −20°C. A stock solution of S. aureus FtsZ for the subsequent bioassay was prepared from the lyophilized powder.
The GTPase activity of recombinant S. aureus FtsZ was measured in 96-well microplates using a CytoPhos phosphate assay Biochem Kit (Cytoskeleton, USA) according to an optimized protocol and the manufacturer’s instructions. S. aureus FtsZ (3.5 µM) was preincubated with vehicle (1% DMSO) or different concentrations of each test compound in 50 mM 4-morpholinepropanesulfonic acid buffer (MOPS, pH 6.5) for 10 min at 25°C. Then 5 mM of MgCl2 and 200 mM of KCl were added. Reactions were started with the addition of 500 µM GTP and incubated at 37°C. After 30 min, the reactions were quenched by adding 100 µL of Cytophos reagent for 10 min. Inorganic phosphate was quantified by measuring the absorbance at 650 nm with a microplate reader (Bio-Rad laboratory Ltd., UK). The relative IC50 values were determined by nonlinear regression using a sigmoidal concentration-response curve in the Origin software v6. For the rate of GTPase activity of S. aureus FtsZ, different concentrations of fresh prepared FtsZ (3, 6, 9, 12, 15 µM) was preincubated with vehicle (1% DMSO) or 25 µM, 50 µM compound 2, following the same condition. The data were plotted via Origin software v6. Three independent assays were performed for all the tests.

E. faecium ATCC 700221 = experiment: Antimicrobial susceptibility assay (broth microdilution MIC); type: cell-based; conditions: Enterococcus faecium, ATCC700221; E. faecium ATCC 700221 (vancomycin-resistant); brain heart infusion broth, 18 h at 37°C; growth inhibited by ≥90%; read-out: MIC
Description: (§2) The bacterial strains S. aureus ATCC 29213, S. aureus ATCC 29247, S. aureus ATCC BAA-41, E. faecium ATCC 49624, E. faecium ATCC 700221, E. faecalis ATCC 29212, S. epidermidis ATCC 12228, E. coli ATCC 25922, and K. pneumoniae ATCC BAA-1144 used in the antimicrobial susceptibility assays were purchased from American Type Culture Collection (ATCC, USA). B. subtilis strain 168 was already available in our in-house collection. E. coli JM109 WM647 was kindly provided by Dr. W. Margolin (University of Texas-Houston Medical School). FM 4–64 was purchased from Invitrogen (Eugene, Oregon). All other chemicals and reagents were purchased from Sigma-Aldrich. Stock solutions were prepared in DMSO. The final percentage of DMSO in the assays was 1% (v/v) for all experiments.
(§3) Antimicrobial susceptibility tests were conducted in 96-well microplates using the broth microdilution procedure described in the Clinical and Laboratory Standards Institute (CLSI) guidelines. […] After incubation for 18 h at 37°C, the absorbance at 600 nm (A600) was recorded using a microplate reader (Bio-Rad laboratory Ltd., UK) and the percentage of bacterial cell inhibition with respect to vehicles (1% DMSO) was calculated. The MIC was defined as the lowest compound concentration at which the growth of bacteria was inhibited by ≥90%. Three independent assays were performed for each test.

E. faecium ATCC 49624 = experiment: as above; type: cell-based; conditions: Enterococcus faecium, ATCC49624; E. faecium ATCC 49624; brain heart infusion broth, 18 h at 37°C; growth inhibited by ≥90%; read-out: MIC
Description: as §2, §3

S. aureus FtsZ [2] = target: T1, S. aureus FtsZ; experiment: Light scattering assay of FtsZ polymerization; type: biochemical; conditions: for inhibition of polymerization in the presence of Triton X-100: 0.01% Triton X-100, berberine 200 and 500 µM, compound 2 10 and 25 µM
Protocol: as §1
The light scattering assay was performed using a protocol adapted from the literature. The polymerization and depolymerization of recombinant S. aureus FtsZ was measured using 90° light scattering in a thermostatically (37°C) controlled fluorescence spectrometer (Perkin Elmer, USA). Both excitation and emission wavelengths were set to 600 nm with a slit width of 2.5 nm. S. aureus FtsZ (6 µM) in 50 mM of MOPS buffer (pH 6.5) was incubated with vehicle (1% DMSO) or different concentrations of the test compound for 10 min at 25°C. 50 mM KCl and 10 mM MgCl2 were then added to establish a baseline. After 8 min, a final concentration of 1 mM GTP was added at the last fraction and the increase in light scattering was measured for an additional 2000s. The rate and extent of polymerization were measured. Appropriate blanks were subtracted from all experimental data. Moreover, in order to rule out unselective inhibition by formation of aggregates, control experiments with 0.01% (v/v) Triton X-100 from a freshly prepared 1% (v/v) stock solution were performed for berberine and compound 2 [40], [41]. Reported results are the average of three independent experiments.

[3] = FtsZ 3.5 µM, 500 µM GTP, 30 min at 37°C, MOPS pH 6.5, read-out: IC50±SEM, S. aureus FtsZ GTPase activity (relative IC50)

Row | Compound | IC50 (S. aureus FtsZ [1]; [3]) [µM] | GTPase activity of S. aureus FtsZ (S. aureus FtsZ [1]; in the presence of 25 µM compound) [GTP/FtsZ/min] | GTPase activity of S. aureus FtsZ (S. aureus FtsZ [1]; in the presence of 50 µM compound) [GTP/FtsZ/min] | MIC (E. faecium ATCC 700221) [µg/mL] | MIC (E. faecium ATCC 49624) [µg/mL] | inhibition of S. aureus FtsZ polymerization at increasing concentrations (S. aureus FtsZ [2]; 10 µM, 25 µM and 50 µM compound) | inhibition at 50 µM (S. aureus FtsZ [2]; 50 µM compound, FtsZ 6 µM, 1 mM GTP, light scattering) [%] | inhibition of polymerization in the presence of Triton X-100 (S. aureus FtsZ [2]) | IC50 (S. aureus FtsZ [1]) [µM] | inhibition at 200 µM (S. aureus FtsZ [2]; 200 µM compound, FtsZ 6 µM, 1 mM GTP, light scattering) [%]
1 | COc1ccc2cc3[n+](cc2c1OCCCOc1ccc(Cl)cc1)CCc1cc2c(cc1-3)OCO2 [Compound 2] | 37.8 ± 3.8 | 0.24 | 0.1 | 4 | 4 | strongly inhibited the S. aureus FtsZ polymerization in a dose-dependent manner | ~70 | maintained |  | 
2 | COc1ccc2cc3[n+](cc2c1OCCCOc1ccccc1)CCc1cc2c(cc1-3)OCO2 [Compound 1] | 56.8 ± 10.4 |  |  | 8 | 8 |  |  |  |  | 
3 | COc1ccc(OCCCOc2c(OC)ccc3cc4[n+](cc23)CCc2cc3c(cc2-4)OCO3)cc1 [Compound 3] | 47.3 ± 4.6 |  |  | 16 | 16 |  |  |  |  | 
4 | COc1ccc2cc3[n+](cc2c1OCCCOc1ccccc1C)CCc1cc2c(cc1-3)OCO2 [Compound 4] | 63.7 ± 4.8 |  |  | 8 | 8 |  |  |  |  | 
5 | COc1ccc2cc3[n+](cc2c1OC)CCc1cc2c(cc1-3)OCO2 [Berberine, Berberine chloride] |  |  |  | > 196 | > 196 |  |  | maintained | 272 ± 46.6 | ~30
6 | COc1ccc2cc3[n+](cc2c1OCCCOc1ccc([N+](=O)[O-])cc1)CCc1cc2c(cc1-3)OCO2 [Compound 5] | 43.4 ± 5.2 |  |  | 8 | 8 |  |  |  |  | 
7 | COc1ccc2cc3[n+](cc2c1OCCCCOc1ccccc1)CCc1cc2c(cc1-3)OCO2 [Compound 6] | 63.5 ± 4.7 |  |  | 8 | 8 |  |  |  |  | 
